Assay results: ChEMBL document CHEMBL3758169, “4-Aminoindazolyl-dihydrofuro[3,4-d]pyrimidines as non-covalent inhibitors of mutant epidermal growth factor receptor tyrosine kinase” (Bioorg Med Chem Lett, 2016)

Key:
[1] = target: Mitogen-activated protein kinase kinase kinase kinase 4 (Homo sapiens) (UniProt O95819); test: Inhibition of MAP4K4 (unknown origin) at 100 nM
[2] = target: MAP kinase-activated protein kinase 3 (Homo sapiens) (UniProt Q16644); test: Inhibition of MAPKAPK3 (unknown origin) at 100 nM
[3] = target: Dual specificity mitogen-activated protein kinase kinase 2 (Homo sapiens) (UniProt P36507); test: Inhibition of MEK2 (unknown origin) at 100 nM
Dual specificity mitogen-activated protein kinase kinase 2 (Homo sapiens), sequence (P36507 whole entry): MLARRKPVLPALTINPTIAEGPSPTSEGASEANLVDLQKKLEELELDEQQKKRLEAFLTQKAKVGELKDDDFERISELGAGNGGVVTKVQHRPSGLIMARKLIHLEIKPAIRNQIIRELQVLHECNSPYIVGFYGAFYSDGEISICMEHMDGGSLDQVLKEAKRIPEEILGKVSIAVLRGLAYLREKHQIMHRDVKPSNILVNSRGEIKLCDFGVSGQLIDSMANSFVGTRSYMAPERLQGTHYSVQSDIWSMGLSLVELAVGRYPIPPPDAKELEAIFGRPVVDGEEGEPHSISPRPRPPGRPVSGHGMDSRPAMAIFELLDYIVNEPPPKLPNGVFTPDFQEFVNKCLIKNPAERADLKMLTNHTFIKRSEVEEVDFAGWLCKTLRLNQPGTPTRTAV

[4] = target: Dual specificity mitogen-activated protein kinase kinase 3 (Homo sapiens) (UniProt P46734); test: Inhibition of MEK3 (unknown origin) at 100 nM
Dual specificity mitogen-activated protein kinase kinase 3 (Homo sapiens), sequence (P46734 whole entry): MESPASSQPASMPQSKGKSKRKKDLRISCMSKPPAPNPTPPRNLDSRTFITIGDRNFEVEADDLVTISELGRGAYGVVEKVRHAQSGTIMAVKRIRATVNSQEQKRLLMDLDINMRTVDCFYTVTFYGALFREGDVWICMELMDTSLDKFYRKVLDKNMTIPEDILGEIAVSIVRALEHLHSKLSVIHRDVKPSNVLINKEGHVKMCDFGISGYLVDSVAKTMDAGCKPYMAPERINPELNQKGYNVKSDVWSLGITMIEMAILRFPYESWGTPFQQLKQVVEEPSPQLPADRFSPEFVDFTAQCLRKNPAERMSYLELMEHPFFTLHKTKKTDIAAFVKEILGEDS

[5] = target: Maternal embryonic leucine zipper kinase (Homo sapiens) (UniProt Q14680); test: Inhibition of MELK (unknown origin) at 100 nM
Maternal embryonic leucine zipper kinase (Homo sapiens), sequence (Q14680 whole entry, looked up): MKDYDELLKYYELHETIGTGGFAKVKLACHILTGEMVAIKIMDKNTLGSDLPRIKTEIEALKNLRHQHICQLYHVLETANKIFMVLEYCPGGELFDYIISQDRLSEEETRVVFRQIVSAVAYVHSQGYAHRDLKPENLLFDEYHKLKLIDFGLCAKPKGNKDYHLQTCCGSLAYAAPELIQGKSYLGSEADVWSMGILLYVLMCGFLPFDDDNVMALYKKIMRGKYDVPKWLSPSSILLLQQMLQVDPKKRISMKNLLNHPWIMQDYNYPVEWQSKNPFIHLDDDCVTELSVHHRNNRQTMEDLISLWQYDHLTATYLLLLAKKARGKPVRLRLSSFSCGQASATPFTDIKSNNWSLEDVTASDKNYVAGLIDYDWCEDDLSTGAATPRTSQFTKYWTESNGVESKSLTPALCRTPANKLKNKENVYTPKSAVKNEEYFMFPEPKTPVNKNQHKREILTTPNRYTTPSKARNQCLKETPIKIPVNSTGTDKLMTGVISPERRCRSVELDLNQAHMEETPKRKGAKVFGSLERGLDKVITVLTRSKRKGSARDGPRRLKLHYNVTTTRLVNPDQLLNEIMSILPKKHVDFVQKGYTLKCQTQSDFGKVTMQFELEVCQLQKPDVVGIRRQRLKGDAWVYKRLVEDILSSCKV

Homo sapiens [6] = organism: Homo sapiens; test: Inhibition of MKK6 S207E/T211E double mutant (unknown origin) at 100 nM
[7] = target: SRSF protein kinase 3 (Homo sapiens) (UniProt Q9UPE1); test: Inhibition of MSSK1 (unknown origin) at 100 nM
[8] = target: Serine/threonine-protein kinase 26 (Homo sapiens) (UniProt Q9P289); test: Inhibition of MST4 (unknown origin) at 100 nM
Homo sapiens [9] = organism: Homo sapiens; test: Inhibition of MET I250T mutant (unknown origin) at 100 nM
[10] = target: Serine/threonine-protein kinase Nek4 (Homo sapiens) (UniProt P51957); test: Inhibition of NEK4 (unknown origin) at 100 nM
Serine/threonine-protein kinase Nek4 (Homo sapiens), sequence (P51957 whole entry, looked up): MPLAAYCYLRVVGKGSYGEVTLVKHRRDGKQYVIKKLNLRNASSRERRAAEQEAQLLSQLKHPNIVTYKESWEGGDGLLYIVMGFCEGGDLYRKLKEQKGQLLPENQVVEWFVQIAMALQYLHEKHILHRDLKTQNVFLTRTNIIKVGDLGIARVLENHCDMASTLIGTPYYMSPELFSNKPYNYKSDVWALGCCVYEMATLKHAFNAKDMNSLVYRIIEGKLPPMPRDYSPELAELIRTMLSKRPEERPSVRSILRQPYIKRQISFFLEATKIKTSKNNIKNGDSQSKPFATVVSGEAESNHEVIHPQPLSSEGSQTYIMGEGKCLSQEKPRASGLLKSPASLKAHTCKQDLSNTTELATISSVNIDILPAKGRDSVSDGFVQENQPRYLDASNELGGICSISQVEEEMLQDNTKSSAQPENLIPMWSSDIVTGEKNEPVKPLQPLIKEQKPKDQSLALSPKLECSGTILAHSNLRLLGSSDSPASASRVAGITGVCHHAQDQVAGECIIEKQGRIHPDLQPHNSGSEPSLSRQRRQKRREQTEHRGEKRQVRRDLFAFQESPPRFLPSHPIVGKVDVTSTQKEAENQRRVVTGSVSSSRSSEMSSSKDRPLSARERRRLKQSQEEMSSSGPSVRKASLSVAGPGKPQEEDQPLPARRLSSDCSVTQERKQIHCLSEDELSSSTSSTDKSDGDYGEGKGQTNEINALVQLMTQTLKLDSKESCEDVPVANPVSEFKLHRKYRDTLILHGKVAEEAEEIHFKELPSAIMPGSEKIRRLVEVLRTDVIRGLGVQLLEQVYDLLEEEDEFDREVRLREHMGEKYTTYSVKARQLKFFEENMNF

[11] = target: Phosphatidylinositol 4-kinase alpha (Homo sapiens) (UniProt P42356); test: Inhibition of PI4Ka (unknown origin) at 100 nM
[12] = target: Serine/threonine-protein kinase pim-1 (Homo sapiens) (UniProt P11309); test: Inhibition of PIM1 (unknown origin) at 100 nM
[13] = target: Protein kinase C beta type (Homo sapiens) (UniProt P05771); test: Inhibition of PKCbeta2 (unknown origin) at 100 nM
[14] = target: Protein kinase C eta type (Homo sapiens) (UniProt P24723); test: Inhibition of PKCeta (unknown origin) at 100 nM
[15] = target: Protein kinase C gamma type (Homo sapiens) (UniProt P05129); test: Inhibition of PKCgamma (unknown origin) at 100 nM
[16] = target: Protein kinase C theta type (Homo sapiens) (UniProt Q04759); test: Inhibition of PKCtheta (unknown origin) at 100 nM
[17] = target: cAMP-dependent protein kinase catalytic subunit PRKX (Homo sapiens) (UniProt P51817); test: Inhibition of PRKX (unknown origin) at 100 nM
[18] = target: Proto-oncogene tyrosine-protein kinase ROS (Homo sapiens) (UniProt P08922); test: Inhibition of ROS (unknown origin) at 100 nM
[19] = target: Serine/threonine-protein kinase Sgk2 (Homo sapiens) (UniProt Q9HBY8); test: Inhibition of SGK2 (unknown origin) at 100 nM
[20] = target: Sphingosine kinase 1 (Homo sapiens) (UniProt Q9NYA1); test: Inhibition of SPHK1 (unknown origin) at 100 nM
[21] = target: SRSF protein kinase 1 (Homo sapiens) (UniProt Q96SB4); test: Inhibition of SRPK1 (unknown origin) at 100 nM
[22] = target: TGF-beta receptor type-1 (Homo sapiens) (UniProt P36897); test: Inhibition of TGFBR1 (unknown origin) at 100 nM
TGF-beta receptor type-1 (Homo sapiens), sequence (P36897 whole entry): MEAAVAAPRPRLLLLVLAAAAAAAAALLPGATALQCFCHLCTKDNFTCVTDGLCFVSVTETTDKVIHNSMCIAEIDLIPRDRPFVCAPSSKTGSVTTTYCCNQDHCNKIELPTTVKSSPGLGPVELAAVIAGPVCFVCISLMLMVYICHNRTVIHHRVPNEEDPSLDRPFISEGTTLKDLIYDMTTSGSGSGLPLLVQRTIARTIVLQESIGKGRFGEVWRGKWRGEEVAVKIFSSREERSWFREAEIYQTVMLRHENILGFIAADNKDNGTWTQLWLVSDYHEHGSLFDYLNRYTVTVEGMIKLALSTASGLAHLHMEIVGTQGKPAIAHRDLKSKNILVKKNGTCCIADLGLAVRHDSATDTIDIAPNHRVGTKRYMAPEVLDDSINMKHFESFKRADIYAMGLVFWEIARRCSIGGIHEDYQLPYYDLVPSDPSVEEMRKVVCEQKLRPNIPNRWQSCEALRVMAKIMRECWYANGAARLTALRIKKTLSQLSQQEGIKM

[23] = target: Serine/threonine-protein kinase WNK2 (Homo sapiens) (UniProt Q9Y3S1); test: Inhibition of WNK2 (unknown origin) at 100 nM
[24] = target: Serine/threonine-protein kinase 25 (Homo sapiens) (UniProt O00506); test: Inhibition of YSK1 (unknown origin) at 100 nM
Serine/threonine-protein kinase 25 (Homo sapiens), sequence (O00506 whole entry, looked up): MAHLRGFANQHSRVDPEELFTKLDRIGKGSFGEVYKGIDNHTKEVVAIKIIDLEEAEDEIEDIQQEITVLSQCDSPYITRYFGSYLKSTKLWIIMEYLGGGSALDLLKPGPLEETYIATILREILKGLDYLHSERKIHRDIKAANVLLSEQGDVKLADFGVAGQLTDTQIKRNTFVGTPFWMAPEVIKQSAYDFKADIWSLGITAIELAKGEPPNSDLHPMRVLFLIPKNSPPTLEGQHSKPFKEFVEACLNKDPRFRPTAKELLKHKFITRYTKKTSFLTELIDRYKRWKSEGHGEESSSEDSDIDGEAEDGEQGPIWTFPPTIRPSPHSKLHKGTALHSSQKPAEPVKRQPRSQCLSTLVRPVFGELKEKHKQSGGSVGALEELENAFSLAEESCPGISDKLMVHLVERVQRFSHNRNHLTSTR

[25] = target: Mitogen-activated protein kinase kinase kinase 20 (Homo sapiens) (UniProt Q9NYL2); test: Inhibition of ZAK (unknown origin) at 100 nM
[26] = target: Epidermal growth factor receptor (Homo sapiens, UniProt P00533, L858R/T790M); test: Inhibition of EGFR T790M/L858R mutant autophosphorylation in human H1975 cells; type: cell-based
[27] = target: Activin receptor type-2B (Homo sapiens) (UniProt Q13705); test: Inhibition of ACVR2B (unknown origin) at 100 nM
[28] = target: Mitogen-activated protein kinase kinase kinase 5 (Homo sapiens) (UniProt Q99683); test: Inhibition of ASK1 (unknown origin) at 100 nM
[29] = target: Cyclin-dependent kinase 5/CDK5 activator 1 (Homo sapiens) (UniProt Q00535+Q15078); test: Inhibition of CDK5/p35 (unknown origin) at 100 nM; type: protein-complex assay
[30] = target: Serine/threonine-protein kinase Chk2 (Homo sapiens) (UniProt O96017); test: Inhibition of CHK2 (unknown origin) at 100 nM
Serine/threonine-protein kinase Chk2 (Homo sapiens), sequence (O96017 whole entry, canonical isoform): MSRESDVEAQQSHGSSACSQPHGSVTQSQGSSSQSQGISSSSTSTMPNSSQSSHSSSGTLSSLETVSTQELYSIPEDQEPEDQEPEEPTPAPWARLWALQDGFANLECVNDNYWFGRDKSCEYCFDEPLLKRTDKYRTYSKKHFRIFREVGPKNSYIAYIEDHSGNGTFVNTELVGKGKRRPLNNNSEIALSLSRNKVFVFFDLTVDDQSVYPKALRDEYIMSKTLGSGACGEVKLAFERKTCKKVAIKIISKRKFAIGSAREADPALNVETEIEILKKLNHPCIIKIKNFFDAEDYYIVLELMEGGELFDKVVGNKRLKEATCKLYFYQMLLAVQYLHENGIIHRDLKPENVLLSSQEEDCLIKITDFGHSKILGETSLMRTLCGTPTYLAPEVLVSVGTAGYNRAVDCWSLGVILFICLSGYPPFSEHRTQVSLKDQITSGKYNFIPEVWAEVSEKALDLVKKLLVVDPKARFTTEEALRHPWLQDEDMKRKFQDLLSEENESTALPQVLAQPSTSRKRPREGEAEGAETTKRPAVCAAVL

[31] = target: Casein kinase I isoform gamma-1 (Homo sapiens) (UniProt Q9HCP0); test: Inhibition of CK1gamma1 (unknown origin) at 100 nM
[32] = target: Casein kinase I isoform gamma-3 (Homo sapiens) (UniProt Q9Y6M4); test: Inhibition of CK1gamma3 (unknown origin) at 100 nM
[33] = target: Calcium/calmodulin-dependent protein kinase type IV (Homo sapiens) (UniProt Q16566); test: Inhibition of CamKIV (unknown origin) at 100 nM
[34] = target: Serine/threonine-protein kinase 17A (Homo sapiens) (UniProt Q9UEE5); test: Inhibition of DRAK1 (unknown origin) at 100 nM
[35] = target: Dual specificity tyrosine-phosphorylation-regulated kinase 1A (Homo sapiens) (UniProt Q13627); test: Inhibition of DYRK1A (unknown origin) at 100 nM
[36] = target: Dual specificity tyrosine-phosphorylation-regulated kinase 3 (Homo sapiens) (UniProt O43781); test: Inhibition of DYRK3 (unknown origin) at 100 nM
[37] = target: Ephrin type-A receptor 8 (Homo sapiens) (UniProt P29322); test: Inhibition of EPHA8 (unknown origin) at 100 nM
[38] = target: Ephrin type-B receptor 2 (Homo sapiens) (UniProt P29323); test: Inhibition of EPHB2 (unknown origin) at 100 nM
Ephrin type-B receptor 2 (Homo sapiens), sequence (P29323 whole entry): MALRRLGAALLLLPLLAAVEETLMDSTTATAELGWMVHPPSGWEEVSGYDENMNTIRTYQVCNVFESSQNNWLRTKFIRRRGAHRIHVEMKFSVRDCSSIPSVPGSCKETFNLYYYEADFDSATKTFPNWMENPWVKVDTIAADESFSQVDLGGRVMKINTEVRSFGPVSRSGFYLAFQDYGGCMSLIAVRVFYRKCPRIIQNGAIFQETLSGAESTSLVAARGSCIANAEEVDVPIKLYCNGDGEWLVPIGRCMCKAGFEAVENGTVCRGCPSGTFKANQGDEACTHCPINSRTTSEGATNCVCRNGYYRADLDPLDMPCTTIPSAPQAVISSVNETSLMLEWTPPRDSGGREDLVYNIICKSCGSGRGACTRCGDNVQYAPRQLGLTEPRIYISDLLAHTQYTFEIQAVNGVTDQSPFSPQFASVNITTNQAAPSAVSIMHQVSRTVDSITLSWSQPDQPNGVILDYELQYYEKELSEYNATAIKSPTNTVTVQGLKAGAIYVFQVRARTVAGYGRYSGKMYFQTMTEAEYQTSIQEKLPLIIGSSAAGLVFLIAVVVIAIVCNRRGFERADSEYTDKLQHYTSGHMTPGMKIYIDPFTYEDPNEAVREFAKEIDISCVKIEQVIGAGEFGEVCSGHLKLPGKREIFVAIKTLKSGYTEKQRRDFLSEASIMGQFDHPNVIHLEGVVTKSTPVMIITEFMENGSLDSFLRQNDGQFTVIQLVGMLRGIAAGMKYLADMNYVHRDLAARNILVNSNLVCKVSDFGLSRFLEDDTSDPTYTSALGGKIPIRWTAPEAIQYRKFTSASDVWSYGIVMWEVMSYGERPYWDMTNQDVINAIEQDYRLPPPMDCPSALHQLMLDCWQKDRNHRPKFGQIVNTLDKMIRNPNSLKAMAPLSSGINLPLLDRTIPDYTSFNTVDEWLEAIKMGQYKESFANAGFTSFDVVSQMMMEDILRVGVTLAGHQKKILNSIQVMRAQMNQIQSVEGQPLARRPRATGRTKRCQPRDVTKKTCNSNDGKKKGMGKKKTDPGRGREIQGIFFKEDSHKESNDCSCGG

[39] = target: Ephrin type-B receptor 3 (Homo sapiens) (UniProt P54753); test: Inhibition of EPHB3 (unknown origin) at 100 nM
[40] = target: G protein-coupled receptor kinase 3 (Homo sapiens) (UniProt P35626); test: Inhibition of GRK3 (unknown origin) at 100 nM
[41] = target: Rhodopsin kinase GRK7 (Homo sapiens) (UniProt Q8WTQ7); test: Inhibition of GRK7 (unknown origin) at 100 nM
[42] = target: LIM domain kinase 1 (Homo sapiens) (UniProt P53667); test: Inhibition of LIMK1 (unknown origin) at 100 nM
[43] = target: Casein kinase II subunit alpha' (Homo sapiens) (UniProt P19784); test: Inhibition of CK2alpha2 (unknown origin) at 100 nM

- inhibition [1]: 51.3%
- inhibition [2]: 5.4%
- inhibition [3]: 12.8%
- inhibition [4]: 14.1%
- inhibition [5]: 12.3%
- inhibition (Homo sapiens [6]): 10.2%
- inhibition [7]: -3.2%
- inhibition [8]: 0.2%
- inhibition (Homo sapiens [9]): 4%
- inhibition [10]: 2%
- inhibition [11]: -2.6%
- inhibition [12]: -7.1%
- inhibition [13]: 11.4%
- inhibition [14]: 15.5%
- inhibition [15]: 16.4%
- inhibition [16]: 4.5%
- inhibition [17]: 8.4%
- inhibition [18]: 11.4%
- inhibition [19]: 2.8%
- inhibition [20]: 0%
- inhibition [21]: 3.9%
- inhibition [22]: 97.9%
- inhibition [23]: 3.4%
- inhibition [24]: 5.1%
- inhibition [25]: 11.4%
- IC50 [26]: 0.6 µM
- inhibition [27]: 96.8%
- inhibition [28]: 4.2%
- inhibition [29]: 3.1%
- inhibition [30]: -1.3%
- inhibition [31]: 1.3%
- inhibition [32]: 1.8%
- inhibition [33]: 15%
- inhibition [34]: 1.1%
- inhibition [35]: 9.6%
- inhibition [36]: -3.5%
- inhibition [37]: 24.9%
- inhibition [38]: 15.3%
- inhibition [39]: 20.1%
- inhibition [40]: -3.6%
- inhibition [41]: 0.8%
- inhibition [42]: 3.1%
- inhibition [43]: 4.2%
SMILES: CC1(C)OCc2c(Nc3n[nH]c4ccccc34)nc(-c3cn[nH]c3)nc21
